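Five concentrations, 48 hours, 96-well plates. GI50: concentration for 50% inhibition of growth. TGI denotes the concentration required for complete inhibition of growth.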
Columns and labels:
Assay in all cases: DTP human tumour cell line panel, 48 h
[1] = tested on: HCT-15 colon
[2] = tested on: MDA-MB-435
[3] = tested on: MDA-MB-231 breast
[4] = tested on: OVCAR-3 ovarian
[5] = tested on: T-47D breast
[6] = tested on: OVCAR-4 ovarian
[7] = tested on: DU-145 prostate
[8] = tested on: SK-MEL-5 melanoma
[9] = tested on: MALME-3M melanoma
[10] = tested on: COLO 205 colon

O=C(O)c1cc(N=Nc2ccc([As](=O)(O)O)cc2)ccc1O
TGI [1]: > 100 µM | TGI [2]: > 100 µM | TGI [3]: > 100 µM | TGI [4]: > 100 µM | TGI [5]: > 100 µM | TGI [6]: > 100 µM | TGI [7]: > 100 µM | TGI [8]: > 100 µM | TGI [9]: > 100 µM | TGI [10]: > 100 µM

CC(C)(C)C1=CC(=CC=C2C=CN(CCCCCCCCCCCO)C=C2)C=C(C(C)(C)C)C1=O
TGI [1]: > 100 µM | TGI [2]: 3.4 µM | TGI [3]: 3.28 µM | TGI [4]: 2.87 µM | TGI [5]: 2.7 µM | TGI [6]: 3.57 µM | TGI [7]: 20.7 µM | TGI [8]: 3.31 µM | TGI [9]: 3.51 µM | TGI [10]: 2.82 µM

O=C(O)C1C(C(=O)O)C(C(=O)O)C1C(=O)O (stereo not given)
TGI [1]: > 100 µM | TGI [2]: > 100 µM | TGI [3]: > 100 µM | TGI [4]: > 100 µM | TGI [5]: > 100 µM | TGI [6]: > 100 µM | TGI [7]: > 100 µM | TGI [8]: > 100 µM | TGI [9]: > 100 µM | TGI [10]: > 100 µM

COc1ccc(-n2c(SCc3cc(OC)c(OC)c(OC)c3)nc3ccc(C)cc3c2=O)cc1
GI50 [1]: 5.24 µM | TGI [1]: > 100 µM | GI50 [2]: 1.88 µM | TGI [2]: 4.72 µM | GI50 [3]: 5.73 µM | TGI [3]: > 100 µM | GI50 [4]: 4.87 µM | TGI [4]: > 100 µM | GI50 [5]: 5.46 µM | TGI [5]: > 100 µM | GI50 [6]: 9.9 µM | TGI [6]: > 100 µM | GI50 [7]: > 100 µM | TGI [7]: > 100 µM | GI50 [8]: 3.58 µM | TGI [8]: > 100 µM | GI50 [9]: 59.8 µM | TGI [9]: > 100 µM | GI50 [10]: 5.24 µM | TGI [10]: > 100 µM

COc1ccc(/C(=N/Nc2ccc([N+](=O)[O-])cc2)Sc2cc(Cl)c(C)cc2S(N)(=O)=O)cc1
GI50 [1]: 7.25 µM | TGI [1]: > 40.8 µM | GI50 [2]: 4.67 µM | TGI [2]: 13.3 µM | GI50 [3]: 3.04 µM | TGI [3]: 8.21 µM | GI50 [4]: 2.52 µM | TGI [4]: 7.4 µM | GI50 [5]: 7.16 µM | TGI [5]: 19.2 µM | GI50 [6]: 2.61 µM | TGI [6]: 7.11 µM | GI50 [7]: 3.8 µM | TGI [7]: 9.77 µM | GI50 [8]: 0.706 µM | TGI [8]: 7.43 µM | GI50 [9]: 3.13 µM | TGI [9]: 10.1 µM | GI50 [10]: 8.57 µM | TGI [10]: 33.3 µM

COC(=O)[C@]12CCC(C)(C)C[C@H]1C1=CC[C@@H]3[C@@]4(C)C/C(=C/c5cccnc5)C(=O)C(C)(C)[C@@H]4CC[C@@]3(C)[C@]1(C)CC2
GI50 [1]: 4.58 µM | TGI [1]: 30.5 µM | GI50 [2]: 5.05 µM | TGI [2]: 20 µM | GI50 [3]: 10.2 µM | TGI [3]: 32.2 µM | GI50 [4]: 4.16 µM | TGI [4]: 27.9 µM | GI50 [5]: 2.96 µM | TGI [5]: 28 µM | GI50 [6]: 11.3 µM | TGI [6]: > 100 µM | GI50 [7]: 8.86 µM | TGI [7]: > 100 µM | GI50 [8]: 5.58 µM | TGI [8]: 17.9 µM | GI50 [9]: 5.24 µM | TGI [9]: 18.2 µM | GI50 [10]: 6.51 µM | TGI [10]: 25.3 µM

Reference: PubChem BioAssay (NCI)
